Source: PubChem BioAssay AID2060500 (Molecular Pharmacology Branch, DTP, NCI, 2025)
Values belong to the compound of their own block, whether it stands above or below them.

Tested on: 596521-263-R-J1-PDC complex spheroids, viability % of control
Experiment: Anticancer human tumor 596521-263-R-J1-PDC patient-derived soft tissue sarcoma cell line growth inhibition [GQUAD]
Conditions: for IC50: curve of first compound; for viability, T/C: stronger effect = lower value
Description: DNA G-quadruplex Stabilizer Agents in Combinations in Complex Spheroids
A high-throughput screen of multi-cell type tumor spheroids was designed to identify active combinations of DNA G-quadruplex stabilizer agents and targeted small molecules. Complex spheroids include a stromal component modeled by human endothelial cells (HUVEC) and fibroblasts modeled by human mesenchymal stem cells (MSCs). The concentration ranges selected for each drug and investigational agent were based upon clinically achievable concentrations if the clinical Cmax of the agent was known.
Compounds. The drugs and investigational agents: pidnarulex (CX-5461; NSC782164), APTO-253 (NSC789042), BRACO-19 (NSC847499), peposertib (NSC802822), ceralasertib (NSC780249), elimusertib (NSC800525), camonsertib (NSC841442), AZD-1390 (NSC803789), olaparib (NSC753686), talazoparib (NSC767125), ART-558 (NSC835418), sotorasib (NSC818433), MRTX-1133 (NSC836407), SN-38 (NSC673596), topotecan (NSC609699), etoposide (NSC141540), doxorubicin (NSC123127), gemcitabine (NSC613327), 5-fluorouracil (NSC19893), paclitaxel (NSC125973), vemurafenib (NSC761431), panobinostat (NSC761190), R-306465 (JNJ-16241199; NSC773264), adavosertib (NSC754352), TP-3654 (NSC805149), carboplatin (NSC241240), KSQ-4279 (NSC840948), and staurosporine (NSC755774) were obtained from the National Cancer Institute (NCI) Developmental Therapeutics Program Chemical Repository (34). The FDA-approved anticancer drug set is available from the NCI Developmental Therapeutics Program. […] The stock solutions were prepared in dimethyl sulfoxide (DMSO, Sigma-Aldrich, St. Louis, MO, cat. D2650) at 800-fold the tested concentration and stored at -70 degrees C prior to their use. All drugs and investigational agents were tested over a range starting from a high concentration at or near the clinical Cmax and decreasing in half-log increments. If the clinical Cmax for an agent had not been determined, the highest concentration tested was 10 microM.
2.3 Cell Culture. All cells were maintained in an incubator at 37 degrees C and 5% CO2 with 95% humidity. The PDC lines were cultured according to standard operating procedures established by the NCI PDMR. All PDCs were thawed and cultured in Matrigel-coated flasks prepared with a working solution of 1X Ham's F-12 nutrient mix, without supplementation (Invitrogen, cat. 11765054), 100 U/mL penicillin-streptomycin (Invitrogen, cat. 15140122), and 2.5% Matrigel (Corning Inc., cat. 354248) for the first three passages. The 857933-349-R-J2-PDC line was cultured in 6C/Colon 1B media, which includes advanced DMEM/F-12 (Thermo Fisher Scientific, cat. 12634028), 10 mM HEPES (Thermo Fisher Scientific, cat. 15630080), 1X GlutaMAX supplement (Thermo Fisher Scientific, cat. 35050061), 0.1 mg/mL primocin (InvivoGen, cat. ant-pm-2), 10% defined fetal bovine serum, heat inactivated (HyClone Laboratories Inc., cat. SH30070.03HI), 50% L-WRN conditioned media (ATCC, cat. CRL-3276), 1.25 mM N-Acetyl-L-cysteine (Sigma-Aldrich, cat. A9165), 10 mM nicotinamide (Sigma-Aldrich, cat. N0636), 1X B-27 supplement (Thermo Fisher Scientific, cat. 17504044), 1X N-2 supplement (Thermo Fisher Scientific, cat. 17502048), 10 microM Y-27632 dihydrochloride (Tocris Bioscience, cat. 1254), and 50 ng/mL human EGF recombinant protein (Thermo Fisher Scientific, cat. PHG0311). The 485176-168-R4-J1-PDC line was cultured in Panc media, which includes all 6C/Colon 1B media components plus 100 ng/mL human FGF-10 (Thermo Fisher Scientific, cat. 100-26), 500 nM SB-431542 (Selleckchem, cat. S1067), and gastrin (Tocris, cat. 3006).
[…]

[1] = second compound 0.0316 µM, first compound 0.000999 µM
[2] = second compound 0.0316 µM, first compound 0.00316 µM
[3] = second compound 0.0316 µM, first compound 0.00999 µM
[4] = second compound 0.0316 µM, first compound 0.0316 µM
[5] = second compound 0.0316 µM, first compound 0.0999 µM
[6] = second compound 0.0316 µM, first compound 0.316 µM
[7] = second compound 0.1 µM, first compound 0.000999 µM
[8] = second compound 0.1 µM, first compound 0.00316 µM
[9] = second compound 0.1 µM, first compound 0.00999 µM
[10] = second compound 0.1 µM, first compound 0.0316 µM
[11] = second compound 0.1 µM, first compound 0.0999 µM
[12] = second compound 0.1 µM, first compound 0.316 µM
[13] = second compound 0.316 µM, first compound 0.000999 µM
[14] = second compound 0.316 µM, first compound 0.00316 µM
[15] = second compound 0.316 µM, first compound 0.00999 µM
[16] = second compound 0.316 µM, first compound 0.0316 µM
[17] = second compound 0.316 µM, first compound 0.0999 µM
[18] = second compound 0.316 µM, first compound 0.316 µM
[19] = second compound 1 µM, first compound 0.000999 µM
[20] = second compound 1 µM, first compound 0.00316 µM
[21] = second compound 1 µM, first compound 0.00999 µM
[22] = second compound 1 µM, first compound 0.0316 µM
[23] = second compound 1 µM, first compound 0.0999 µM
[24] = second compound 1 µM, first compound 0.316 µM
[25] = second compound 3.16 µM, first compound 0.000999 µM
[26] = second compound 3.16 µM, first compound 0.00316 µM
[27] = second compound 3.16 µM, first compound 0.00999 µM
[28] = second compound 3.16 µM, first compound 0.0316 µM
[29] = second compound 3.16 µM, first compound 0.0999 µM
[30] = second compound 3.16 µM, first compound 0.316 µM
[31] = second compound 10 µM, first compound 0.000999 µM
[32] = second compound 10 µM, first compound 0.00316 µM
[33] = second compound 10 µM, first compound 0.00999 µM
[34] = second compound 10 µM, first compound 0.0316 µM
[35] = second compound 10 µM, first compound 0.0999 µM
[36] = second compound 10 µM, first compound 0.316 µM
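Further: spheroids exposed to drugs for 7 days before viability reading.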

SMILES: CCc1c2c(nc3ccc(O)cc13)-c1cc3c(c(=O)n1C2)COC(=O)[C@]3(O)CC + Cc1[nH]c2ccc(F)cc2c1-c1nc2c3cccnc3c3ncccc3c2[nH]1
- IC50 (second compound 0.0316 µM): 6.02 nM
- IC50 (second compound 0.1 µM): 7.91 nM
- IC50 (second compound 0.316 µM): 5.32 nM
- IC50 (second compound 1 µM): 8.42 nM
- IC50 (second compound 3.16 µM): 4.26 nM
- IC50 (second compound 10 µM): 8.37 nM
- viability, T/C [1]: 65.8%
- viability, T/C [2]: 54.8%
- viability, T/C [3]: 45.7%
- viability, T/C [4]: 34.3%
- viability, T/C [5]: 19.2%
- viability, T/C [6]: 9.24%
- viability, T/C [7]: 57.3%
- viability, T/C [8]: 61.5%
- viability, T/C [9]: 47.4%
- viability, T/C [10]: 31.1%
- viability, T/C [11]: 21.5%
- viability, T/C [12]: 7.09%
- viability, T/C [13]: 71.4%
- viability, T/C [14]: 54.4%
- viability, T/C [15]: 44%
- viability, T/C [16]: 30.1%
- viability, T/C [17]: 16.1%
- viability, T/C [18]: 9.37%
- viability, T/C [19]: 67%
- viability, T/C [20]: 58.4%
- viability, T/C [21]: 50.3%
- viability, T/C [22]: 29.6%
- viability, T/C [23]: 17.5%
- viability, T/C [24]: 7.61%
- viability, T/C [25]: 61.8%
- viability, T/C [26]: 52.3%
- viability, T/C [27]: 42.1%
- viability, T/C [28]: 31.3%
- viability, T/C [29]: 18.8%
- viability, T/C [30]: 8.52%
- viability, T/C [31]: 56.8%
- viability, T/C [32]: 59.2%
- viability, T/C [33]: 48.6%
- viability, T/C [34]: 29.9%
- viability, T/C [35]: 17%
- viability, T/C [36]: 8.36%

- IC50 (second compound 0.0316 µM): > 316 nM
- IC50 (second compound 0.1 µM): > 316 nM
- IC50 (second compound 0.316 µM): > 316 nM
- IC50 (second compound 1 µM): > 316 nM
- IC50 (second compound 3.16 µM): > 316 nM
- IC50 (second compound 10 µM): 103 nM
SMILES: Cn1ncnc1[C@H]1c2n[nH]c(=O)c3cc(F)cc(c23)N[C@@H]1c1ccc(F)cc1 + Cc1cnc(CNC(=O)c2c(=O)c3ccc(N4CCCN(C)CC4)nc3n3c2sc2ccccc23)cn1
- viability, T/C [1]: 108%
- viability, T/C [2]: 83.4%
- viability, T/C [3]: 94.5%
- viability, T/C [4]: 90.2%
- viability, T/C [5]: 90.2%
- viability, T/C [6]: 71.2%
- viability, T/C [7]: 88.5%
- viability, T/C [8]: 84%
- viability, T/C [9]: 72.3%
- viability, T/C [10]: 81.2%
- viability, T/C [11]: 74.6%
- viability, T/C [12]: 64.7%
- viability, T/C [13]: 81.3%
- viability, T/C [14]: 71.1%
- viability, T/C [15]: 86.4%
- viability, T/C [16]: 68.5%
- viability, T/C [17]: 76%
- viability, T/C [18]: 65.9%
- viability, T/C [19]: 74.1%
- viability, T/C [20]: 66.2%
- viability, T/C [21]: 60.5%
- viability, T/C [22]: 53.7%
- viability, T/C [23]: 60%
- viability, T/C [24]: 59.7%
- viability, T/C [25]: 55.9%
- viability, T/C [26]: 56.4%
- viability, T/C [27]: 54%
- viability, T/C [28]: 55.7%
- viability, T/C [29]: 56.5%
- viability, T/C [30]: 53%
- viability, T/C [31]: 52.9%
- viability, T/C [32]: 40.3%
- viability, T/C [33]: 56.2%
- viability, T/C [34]: 50.1%
- viability, T/C [35]: 52.8%
- viability, T/C [36]: 32.2%
